{"source": "patent US4608365A", "about": "“Treatment of neurologic functions” (priority 1984, dated 1986)", "key": {"[1]": {"test_system": "non-ALS person with chronic juvenile proximal spinal muscular atrophy", "format": "in vivo, human"}, "ALS patients [2]": {"test_system": "ALS patients", "test": "Transient autorefractory effect, intravenous TRH in ALS patients", "format": "in vivo, human", "method": "To analyze this phenomenon, four ALS patients were given six-minute intravenous pulses of […] of TRH at ten to twenty minute intervals. Each of the first one to five \"priming doses\" produced or, sustained dramatically-increased strength in responsive muscles. Subsequent identical pulses precipitated an equally dramatic interruption within 18-30 seconds causing rapid loss of all improvement, back to baseline strength or below, i.e., \"autorefractoriness.\" Some weakness of clinically normal limb muscles also sometimes occurred. Eleven autorefractory states of the four patients lasted 12-100 minutes (median 68 minutes) after initial administration of TRH, until spontaneous recovery re-achieved maximal strength benefit. During recovery, strength fluctuated. […] When the autorefractory state first developed, with loss of strength to baseline, increasing the infusion to 1.5 mg/minute rapidly overcame the \"block\" within one minute, associated with increased strength. Within another minute, complete autorefractoriness reappeared. Raising the rate to 2 mg/minute again reversed this blockage, with strength increased to maximum in thirty seconds, but autorefractoriness reappeared in 1.5 minutes. […] Strength fluctuated between complete blockage and partial reversal for the next 71 minutes until the autorefractoriness fully reversed itself at 81 minutes."}, "[3]": {"settings": "human, in vivo", "method": "In three ALS patients given 25 mg TRH intravenously during 6 minutes, concommitant TRH values were measured in the plasma and serum at 0, 6 and 12 minutes."}, "[4]": {"test_system": "infant with infantile spinal muscular atrophy", "set-up": "species or system human", "settings": "in vivo"}, "non-ALS patients": {"test_system": "non-ALS patients", "test": "Intravenous and subcutaneous TRH in non-ALS patients with lower or upper motor neuron abnormality (Example VII)", "format": "in vivo, human", "settings": "i.v. and s.c., seven non-ALS patients", "from_the_text": "The dosage, benefits and side-effects were essentially similar to those described in Examples II, V and VI."}, "ALS patients [5]": {"test_system": "ALS patients", "format": "in vivo, human", "method": "As shown in Examples I-V, intravenous infusion of thyrotropin-releasing hormone improves weakness and spasticity from lower motor neuron and upper motor neuron involvement in patients with amyotrophic lateral sclerosis and proximal spinal muscular atrophy. In an additional study, forty-one ALS patients were treated with 461 days of subcutaneous TRH administered 75-150 mg once daily or 75 mg twice daily. The subcutaneous doses were sometimes administered by patients or spouses. Included were all forms of ALS, and all patients were videotaped pre- and post-treatment. […] Saline injections produced no responses. The previously-noted lesser benefit and side-effects in females was less evident.\nBenefit and side-effects of TRH administered subcutaneously were qualitatively and quantitatively similar to those of intravenous TRH described in Examples III and IV. […] Response times were somewhat different.\n(§1) There were several control aspects of the TRH studies. […] The patients given subcutaneous TRH had treatments interspersed with saline placebo injections. […] The time course of response was not known before the study and, in fact, it was expected that the onset would be later and the duration of response longer than was actually found. Different patients responded to different doses of TRH, and the sex difference in response (woman apparently less responsive) was not expected. […] There were three observers, one unaware of the infusion status. In addition, clinical examinations of all patients of Examples III-VII were videotaped and later reviewed by several observers.\nIn each of the foregoing Examples, the TRH was administered in a normal saline solution containing 100 mg/ml of TRH. The pH of the solution was not adjusted. This particular carrier and strength was selected for its ready availability, the convenience in calculating dosages administered and its similarity to the placebo solution, and additional carriers may be employed as desired. Timed-release carriers would be particularly advantageous, and are within the scope of the invention."}, "ALS patients [6]": {"test_system": "ALS patients", "test": "Transient autorefractory effect, subcutaneous TRH in ALS patients", "format": "in vivo, human", "from_the_text": "Possible mechanisms for autorefractoriness, presumably involving the lower motor neuron soma/dendrites and/or neurons afferent thereto, include: […] In normal animals, repeated micropipetting of TRH near lower motor neurons has been shown by others to cause a similar prolonged unresponsiveness. The mechanism of autorefractoriness may be, in general, related to the excellent clinical anti-spasticity benefits of TRH, and non-excitatory TRH analogs may be employed within the spirit of the invention to enhance this type of clinical improvement."}, "ALS patients [7]": {"test_system": "ALS patients", "format": "in vivo, human", "method": "Three fasting ALS patients (men aged 37 and 60 and a person; duration of disease three-quarters of a year, one and three years, respectively) were each given an intravenous infusion of TRH in which the dose increased in seven steps from 0.5 to 19 mg/minute over sixty to eighty minutes (total dose 320, 432 and 500 mg). The two men had major spasticity from upper motor neuron involvement and weakness from lower motor neuron involvement. […] Shivering, tachypnoea and sweating increased further with rising dosage, and in the two men the infusion was stopped at 19 mg/minute, after 320 and 432 mg total, because of tachypnoea (40-45 breaths per minute) and vigorous shivering. There also was a transient increase in pulse rate (10-15 beats per minute). The men experienced sensations of coolness or warmth of the anterior lower chest and abdomen. One of the men felt \"bad all over\" at 19 mg/minute. […] At that time, a spinal lumbar puncture was performed to obtain cerebrospinal fluid for analysis as hereinafter described. The patient had no spasticity, only weakness from lower motor neuron involvement. […] Their infusion was stopped when the drug supply was depleted (at 500 mg total dose). The dosage was not stopped because of side-effects of TRH. […] Experience with the additional patients confirmed the observation that there is more shivering side-effect in the patients with more spasticity.\nas §1", "remark": "listed apart in the source"}, "[8]": {"settings": "eleven autorefractory states of four patients"}}}
{"smiles": "NC(=O)[C@@H]1CCCN1C(=O)[C@H](Cc1cnc[nH]1)NC(=O)[C@@H]1CCC(=O)N1", "note": "[TRH, L-pyroglutamyl-L-histidyl-L-prolinamide]", "values": [{"measurement": "muscle strength", "setting": "[1]; 1-8 mg/minute i.v., 500 mg total, several muscle functions", "value": "slight to moderate improvement of strength"}, {"measurement": "sensitivity to TRH relative to the men", "setting": "[1]; i.v.", "value": "one-fourth to one-eighth as sensitive"}, {"measurement": "intravenous rate at which an acute increase in strength occurred", "setting": "[1]; printed as Example IV (summary)", "value": 4.7, "unit": "mg/min"}, {"measurement": "onset of waning-waxing of TRH-increased lower motor neuron strength", "setting": "ALS patients [2]; continuous i.v. 1-8 mg/minute, all patients", "value": "as early as three to thirty minutes"}, {"measurement": "duration of autorefractory states", "setting": "ALS patients [2]; [8]", "value": "12 to 100", "unit": "min"}, {"measurement": "median duration of autorefractory states", "setting": "ALS patients [2]; [8]", "value": 68, "unit": "min"}, {"measurement": "partial reversal of autorefractoriness after TRH was stopped", "setting": "ALS patients [2]; one ALS patient", "value": "partially reversed at ten minutes"}, {"measurement": "time to full reversal of autorefractoriness after TRH was stopped", "setting": "ALS patients [2]; one ALS patient", "value": 81, "unit": "min"}, {"measurement": "strength", "setting": "ALS patients [2]; one ALS patient, 1 mg/minute continuous i.v.", "value": "markedly increased their strength"}, {"measurement": "strength after raising the rate during autorefractoriness", "setting": "ALS patients [2]; one ALS patient, 2.5 mg/minute for nine minutes", "value": "failed to increase strength"}, {"measurement": "time to interruption (loss of all improvement) after subsequent identical pulses", "setting": "ALS patients [2]; six-minute i.v. pulses of 4.17 mg/minute at ten to twenty minute intervals, four ALS patients", "value": "18 to 30", "unit": "s"}, {"measurement": "cerebrospinal fluid TRH level", "setting": "[3]", "value": "≤ 5368", "unit": "pg/mL"}, {"measurement": "safety and benefit on strength", "setting": "[4]", "value": "safety without side-effects and possible benefit on strength"}, {"measurement": "benefit", "setting": "non-ALS patients", "value": "markedly benefited"}, {"measurement": "improvement in neurologic deficits from hypofunction of lower and upper motor neurons", "setting": "ALS patients [5]; ALS and other patients, therapeutic amounts (summary of all studies)", "value": "moderate to excellent improvement"}, {"measurement": "muscle strength in retreated female non-responder of Example II", "setting": "ALS patients [5]; a few months later, evaluated in more detail", "value": "slight but definite improvement of muscle strength"}, {"measurement": "effect on mood, alertness, excitation, appetite or sleep", "setting": "ALS patients [5]; human, in vivo", "value": "no noticeable effect"}, {"measurement": "new side effects", "setting": "ALS patients [5]; human, in vivo", "value": "very transient taste noted within a few minutes; asthmatic phenomena lasting about five minutes during maximal shivering in two patients with a history of asthma"}, {"measurement": "strength and head tremor in one patient with hereditary ALS", "setting": "ALS patients [5]; human, in vivo", "value": "improvement in strength and also improvement in a co-existing head tremor"}, {"measurement": "transient shivering, onset and end", "setting": "ALS patients [5]; human, in vivo, sc", "value": "beginning at three to ten minutes and lasting until thirty to sixty minutes"}, {"measurement": "neuromuscular stamina", "setting": "ALS patients [5]; s.c.", "value": "clearly increased"}, {"measurement": "painful muscle cramps, spasms, spontaneous clonus and stiffness", "setting": "ALS patients [5]; s.c.", "value": "eliminated or lessened for several days in all patients having them"}, {"measurement": "painful spontaneous flexor withdrawal reflexes", "setting": "ALS patients [5]; s.c.", "value": "remained eliminated for at least twelve days in some instances"}, {"measurement": "swallowing", "setting": "ALS patients [5]; s.c.", "value": "increased, eliminating choking on food and saliva accumulation in the mouth"}, {"measurement": "time benefits in strength, cramps, spasticity and clonus often endured undiminished", "setting": "ALS patients [5]; s.c.", "value": "twenty-four hours"}, {"measurement": "time to maximal increased strength", "setting": "ALS patients [5]; s.c.", "value": "one-and-a-half to two minutes"}, {"measurement": "improvement", "setting": "ALS patients [5]; s.c. 150 mg once daily or 75 mg twice daily (summary)", "value": "similarly striking improvement"}, {"measurement": "response", "setting": "ALS patients [5]; s.c. 75-150 mg once daily or 75 mg twice daily, forty-one ALS patients, 461 days", "value": "beneficial responses"}, {"measurement": "stair climbing", "setting": "ALS patients [5]; s.c., many patients", "value": "eleven flights of stairs (compared to two with difficulty before TRH)"}, {"measurement": "aching of shoulder and hip joints", "setting": "ALS patients [5]; s.c., severe ALS", "value": "temporarily reduced or abolished for at least one to three days"}, {"measurement": "recovery of lost abilities", "setting": "ALS patients [5]; s.c., some patients", "value": "regained abilities that had been lost for six to twelve months"}, {"measurement": "spasticity, clonus and muscle cramps", "setting": "ALS patients [5]; s.c., when shivering diminished or one to three hours thereafter", "value": "improved from their before-treatment status or completely abolished or absent"}, {"measurement": "subcutaneous dose required per body weight", "setting": "ALS patients [5]; single injection", "value": "≥ 0.71 mg/kg of body weight"}, {"measurement": "subcutaneous dose required", "setting": "ALS patients [5]; single injection once, or similar amount twice-a-day", "value": "at least 50 mg"}, {"measurement": "partial autorefractory state, onset and duration", "setting": "ALS patients [6]; 125-150 mg s.c., first day", "value": "began by four to ten minutes and lasted, with fluctuations, two to three hours"}, {"measurement": "time to increased strength", "setting": "ALS patients [6]; 125-150 mg s.c., first day, twenty ALS patients", "value": "within one to two minutes"}, {"measurement": "effect of second dose at twenty-four hours", "setting": "ALS patients [6]; another 125-150 mg s.c.", "value": "marked weakness within two minutes"}, {"measurement": "drug resistance on repeated treatment", "setting": "ALS patients [6]; i.v. or s.c., as long as eight months", "value": "no diminution of beneficial response attributable to drug resistance"}, {"measurement": "effectiveness of low intravenous dose", "setting": "ALS patients [7]; 0.5 mg/minute for twenty minutes, Examples II and III", "value": "not found to be effective"}, {"measurement": "dose at which shivering, tachypnoea and sweating began", "setting": "ALS patients [7]; human, in vivo, iv", "value": 8, "unit": "mg/min"}, {"measurement": "transient increase in pulse rate", "setting": "ALS patients [7]; human, in vivo, iv", "value": "10-15 beats per minute"}, {"measurement": "dose at which movement and strength of legs, arms and tongue began to improve, with decreased spasticity", "setting": "ALS patients [7]; i.v. infusion increased in seven steps 0.5 to 19 mg/minute, two men", "value": "2 to 4", "unit": "mg/min"}, {"measurement": "persistence of benefits and side effects after infusion", "setting": "ALS patients [7]; i.v. stepwise infusion", "value": "no longer obvious thirty minutes after the infusion ended"}, {"measurement": "response of patient with no spasticity, only lower motor neuron weakness", "setting": "ALS patients [7]; i.v., 500 mg total dose", "value": "only slight subjective improvement in strength without obvious objective improvement"}]}
